Patent publication US20250034161A1, “SPIROCYCLIC COMPOUND AS KRAS-G12C INHIBITOR” (Shanghai Euregen Biopharma Co., Ltd., priority 2020, published 2025)

Legend:
[1] = Whole blood stability assay, rat whole blood; assay type: in vitro ADME; conditions: 37° C.
Procedure: • 1. Test purpose: to determine the whole blood stability of the compounds by monitoring the clearance rate of the parent compound after incubation of some of the example compounds of the invention with dog and rat whole blood. • 2. […] Test method:
Then, the stock solution of the test compound was diluted to 1 mmol/L and 0.2 mmol/L with 70% acetonitrile aqueous solution, respectively, as working solution.
The working solution was added to the whole blood. The concentration of each test compound was 5 μmol/L. 90 μL was taken and then mixed evenly with 90 μL of water. Then 600 μL of acetonitrile termination solution containing propranolol as internal standard was added. Incubated at 37° C. in a water bath and shook gently. At 30, 60, 120 and 240 minutes, 90 μL of each mixture was placed on a clean 96-well plate prefilled with 90 μL of water, mixed well, and then 600 μL of acetonitrile termination solution containing propranolol as internal standard was added and centrifuged at 5000 g for 15 min. 80 μL of the supernatant was taken and placed in a 96-well plate preloaded with 160 μL of ultrapure water, then analyzed by LC-MS/MS.

[2] = Plasma protein binding assay (equilibrium dialysis), monkey plasma; assay type: in vitro ADME; conditions: pH 7.4, equilibrium dialysis 5 hours, read-out: Plasma protein binding rate (%) (converted)
Procedure: • 1. Test purpose: to evaluate the protein binding rate of the test compound in human, dog, monkey, rat and mouse plasma by equilibrium dialysis; • 2. […] Experimental methods: • 0.1 mol/L sodium phosphate and 0.15 mol/L sodium chloride buffer with pH 7.4±0.1 was preheated;
Preparation of plasma containing test substance: the test compound was dissolved in DMSO to prepare a 10 mmol/l stock solution. 5 μL of stock solution was taken and diluted with 95 μL of acetonitrile to obtain solution A (0.5 mmol/L). 8 μL of solution A was taken and diluted with 192 μL of 0.1 mol/L sodium phosphate buffer to obtain solution B (0.02 mmol/L). 570 μL of plasma was added into a 96-well plate followed by the addition of 30 μL of solution B. The final concentration was 1 μmol/L with 0.01% DMSO.
The plate was shook at 600 rpm for 10 minutes, covered and stored in a freezer (−20° C.).
T5 sample preparation (in triplicate): the dialysis device was added with 100 μL of buffer on its receiver side and 100 μL of plasma containing the test compound on its doner side. And the dialysis device was then shook at 37° C. and 120 rpm for 5 hours. At the end of culture, 25 μL of plasma containing the test substance was taken from the plasma side and then added to a 96-well plate, followed by the addition of 25 μL of buffer and 200 μL of acetonitrile solution containing internal standard. […]

SMILES: C=CC(=O)N1CCN(c2nc(=O)n(-c3c(C)ccnc3C(C)C)c3nc(-c4c(O)cccc4F)c(F)cc23)[C@@H](C)C1 [AMG510]
- half-life at 5 μmol/L [1]: 1.85 h
- fraction unbound at 5 h, 1 μmol/L [2]: 0.017

SMILES: C=C(F)C(=O)N1CCN(c2nc(OC[C@@H]3CCCN3C)nc3c2CCN(c2cccc4cccc(Cl)c24)C3)C[C@@H]1CC#N [MRTX849]
- half-life at 5 μmol/L [1]: 13.1 h
- fraction unbound at 5 h, 1 μmol/L [2]: 0.013
